Active and inactive are the calls of the source. Bounds are passed on as bounds.

In experiment [1] the target is T1, Luciferin 4-monooxygenase (Photinus pyralis, UniProt P08659). The experiment can be described thus: firefly luciferase enzyme inhibitors, dose response, biochemical, luminescence (AID 1891).
Experiment [2] is described as follows: Luminescence Cell-Based Dose Confirmation HTS to Identify Inhibitors of Platelet Dense Granule Release. [Related pubchem assays: 1663 (Primary HTS), 1678 (Summary of Project)]. It is filed as functional.
A short description of experiment [3]: inhibitors of SFLLRN-triggered platelet P-selectin exposure, dose response, cell-based, fluorescence, flow cytometry, human platelets (AID 2511). It counts as functional.
Experiment [4] is described as follows: blockers of SFLLRN-triggered platelet ATP secretion – cell-based, human platelets, luminescence, dry powder, dose response (AID 493100). It counts as functional.
The target of experiment [5] is Voltage-gated N-type calcium channel alpha-1B subunit/Amyloid beta A4 precursor protein-binding family A member 1 (Homo sapiens, UniProt Q00975+Q02410). The experiment can be described thus: disruptors of Mint-PDZ/N-type channel peptide interaction – biochemical, HTRF, set 2, SAR follow-up (AID 434980). It is filed as functional.
In experiment [6] the target is T2, Coagulation factor XII (Homo sapiens, UniProt P00748).
T2 sequence (P00748 whole entry): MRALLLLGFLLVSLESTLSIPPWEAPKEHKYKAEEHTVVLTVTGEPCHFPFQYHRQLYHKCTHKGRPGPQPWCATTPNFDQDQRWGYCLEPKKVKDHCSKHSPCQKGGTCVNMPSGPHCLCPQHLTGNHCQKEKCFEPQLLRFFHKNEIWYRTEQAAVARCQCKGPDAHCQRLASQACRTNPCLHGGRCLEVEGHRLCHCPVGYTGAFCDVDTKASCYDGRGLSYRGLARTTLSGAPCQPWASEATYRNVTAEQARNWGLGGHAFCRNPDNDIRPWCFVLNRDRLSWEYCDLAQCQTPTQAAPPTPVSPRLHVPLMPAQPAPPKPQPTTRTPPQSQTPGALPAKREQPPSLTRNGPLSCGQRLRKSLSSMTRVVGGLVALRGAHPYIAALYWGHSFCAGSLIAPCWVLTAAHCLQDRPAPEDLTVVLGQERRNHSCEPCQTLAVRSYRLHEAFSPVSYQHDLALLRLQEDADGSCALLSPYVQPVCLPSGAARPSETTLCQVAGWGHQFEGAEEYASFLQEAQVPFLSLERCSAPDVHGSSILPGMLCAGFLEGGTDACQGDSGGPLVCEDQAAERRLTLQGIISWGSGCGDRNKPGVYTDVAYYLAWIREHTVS
The experiment can be described thus: FXIIa inhibitor potency, concentration-response, biochemical (AID 716). It is filed as functional.

The target in experiment [7] is FAD-linked sulfhydryl oxidase ALR (Homo sapiens, UniProt P55789). The experiment can be described thus: inhibitors of human ALR sulfhydryl oxidase, dose response, biochemical, H2O2 detection, luminescence, cherry-pick (AID 493248).
Experiment [8] deals with Streptococcus sp. 'group A'. The experiment can be described thus: growth inhibition of control SK(-) GAS strain, dose response, counter-screen for streptokinase expression inhibitor project, luminescence, kanamycin, BacTiterGlo, confirmation (AID 1900). It counts as functional, organism-based.
The target of experiment [9] is T3, Streptokinase A (Streptococcus pyogenes serotype M1, UniProt P10520).
T3 sequence (P10520 whole entry): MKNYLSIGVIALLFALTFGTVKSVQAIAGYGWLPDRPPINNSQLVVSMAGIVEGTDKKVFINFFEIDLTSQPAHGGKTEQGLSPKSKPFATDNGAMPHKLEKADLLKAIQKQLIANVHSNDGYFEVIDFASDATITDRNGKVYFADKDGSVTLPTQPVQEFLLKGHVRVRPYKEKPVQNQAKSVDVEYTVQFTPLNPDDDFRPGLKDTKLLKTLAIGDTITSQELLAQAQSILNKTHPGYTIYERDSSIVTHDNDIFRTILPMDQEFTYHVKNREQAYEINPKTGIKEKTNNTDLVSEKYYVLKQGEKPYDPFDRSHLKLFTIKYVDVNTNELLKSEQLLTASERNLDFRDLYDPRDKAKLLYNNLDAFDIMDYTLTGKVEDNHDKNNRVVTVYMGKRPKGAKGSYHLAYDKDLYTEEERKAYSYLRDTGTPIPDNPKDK
The experiment can be described thus: S. pyogenes streptokinase expression inhibitors, potency, dose response, plasminogen activation absorbance, OD405 (AID 1914).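 Also: secreted streptokinase activity via plasminogen activation per viability signal from cell pellet.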 It is filed as functional, Streptococcus pyogenes M1 GAS.

In experiment [10] the test system is Streptococcus. The experiment can be described thus: Group A Streptococcus viability loss, dose response, counter-screen for streptokinase expression inhibitor project, luminescence, BacTiterGlo (AID 1915).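 Also: potency for reduction of bacterial viability or growth.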 It is filed as functional, organism-based.
In experiment [11] the test system is HeLa. The experiment can be described thus: HeLa cell cytotoxicity, dose response, cytotoxicity control, 24 h, cherry-picked samples (AID 504726).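 Also: potency for cytotoxicity as loss of luminescence signal.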 It is filed as functional, cell-based. As to conditions: Homo sapiens.
Experiment [12] is described as follows: Luminescence Cell-Based Dose Retest to Confirm Inhibitors of Cancer Stem Cells. [Related pubchem assays (depositor defined):AID2717, AID2721]. It is filed as functional. As to conditions: Homo sapiens.
In experiment [13] the test system is Salmon testes DNA. The experiment can be described thus: DNA intercalators displacing acridine orange, dose response, artefact control for KSHV LANA DNA-binding inhibitor project, biochemical, fluorescence polarization, cherry-picked samples, set 2 (AID 504727). The arrangement: species or system Salmonidae.
Experiment [14] concerns the target ORF 73 (Human herpesvirus 8, UniProt O40947). The experiment can be described thus: inhibitors of C-LANA binding to LBS DNA, dose response, biochemical, fluorescence polarization, cherry-picked samples (AID 504725).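 Also: fluorescence polarization of a labeled DNA duplex reporting LANA DNA binding; potency is for inhibitors that block LANA binding to the DNA.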 Set-up: species or system Human gammaherpesvirus 8.
In experiment [15] the target is Keap1/Nrf2 (Homo sapiens, UniProt Q14145). The experiment can be described thus: Keap1-Nrf2 protein-protein interaction inhibitors, dose response, biochemical, fluorescence polarization, cherry-picked samples (AID 588683).
The target of experiment [16] is T4, Rac GTPase-activating protein 1 (Homo sapiens, UniProt Q9H0H5).
T4 sequence (Q9H0H5 whole entry): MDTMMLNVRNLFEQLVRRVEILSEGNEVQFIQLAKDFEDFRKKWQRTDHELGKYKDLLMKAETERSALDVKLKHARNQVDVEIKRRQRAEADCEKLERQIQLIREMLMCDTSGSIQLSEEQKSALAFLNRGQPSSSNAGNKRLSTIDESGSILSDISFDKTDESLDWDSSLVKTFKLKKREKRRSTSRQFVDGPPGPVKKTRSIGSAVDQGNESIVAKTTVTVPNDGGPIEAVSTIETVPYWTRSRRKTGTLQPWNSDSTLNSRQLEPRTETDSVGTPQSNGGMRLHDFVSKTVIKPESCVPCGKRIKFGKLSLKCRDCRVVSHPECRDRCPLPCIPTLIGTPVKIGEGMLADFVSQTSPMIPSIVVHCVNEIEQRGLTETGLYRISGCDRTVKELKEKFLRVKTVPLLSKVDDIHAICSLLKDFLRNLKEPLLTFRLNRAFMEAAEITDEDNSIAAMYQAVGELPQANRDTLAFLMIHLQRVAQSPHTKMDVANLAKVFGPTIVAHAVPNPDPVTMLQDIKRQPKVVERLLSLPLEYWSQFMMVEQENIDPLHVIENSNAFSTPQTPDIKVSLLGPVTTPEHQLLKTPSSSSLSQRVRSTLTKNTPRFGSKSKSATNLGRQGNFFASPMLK
The experiment can be described thus: MgcRacGAP GTPase-activating activity inhibitors, confirmation, biochemical, ADP Hunter fluorescence, primary and confirmatory (AID 624330). It counts as functional.

Experiment [17] concerns HEK293. The experiment can be described thus: PMA/Ionomycin induced NF-kB luciferase assay in 293- NF-kB-Luc stable cells. [Related pubchem assays: 1299, 1270, 1295, 1375, 1287, 1281, 1293, 1291, 1289, 1280, 465, 1364, 1282, 1372, 1365, 1370, 1367, 1366, 1269, 1373, 1292, 1290, 1302, 1371, 1283, 1271, 1294, 1374, 1368, 1369 ]. As to conditions: Homo sapiens. It counts as functional, cell-based.

The target of experiment [18] is T1, Luciferin 4-monooxygenase. The experiment can be described thus: In vitro luciferase assay using purified luciferase. [Related pubchem assays: 1299, 1270, 1295, 1375, 1287, 1281, 1293, 1291, 1289, 1280, 465, 1364, 1282, 1372, 1365, 1370, 1367, 1366, 1266, 1373, 1292, 1290, 1302, 1371, 1283, 1271, 1294, 1374, 1368, 1369 ].
Experiment [19] concerns HEK293. The experiment can be described thus: PMA/Ionomycin-induced IL-8 production in HEK293- NF-kB-Luc stable cells. [Related pubchem assays: 1299, 1295, 1375, 1287, 1281, 1293, 1291, 1289, 1280, 465, 1364, 1282, 1372, 1365, 1367, 1366, 1266, 1269, 1373, 1292, 1290, 1302, 1371, 1283, 1271, 1294, 1374, 1368, 1369 ]. It counts as functional, cell-based. As to conditions: Homo sapiens.

The test system of experiment [20] is HEK293. The experiment can be described thus: Cytotoxicity assay in HEK293 cells. [Related pubchem assays (depositor defined):AID1266, AID1269, AID1270, AID1271, AID1280, AID1281, AID1282, AID1283, AID1287, AID1289, AID1290, AID1291, AID1292, AID1293, AID1294, AID1295, AID1299, AID1302, AID1364, AID1365, AID1366, AID1367, AID1369, AID1370, AID1371, AID1372, AID1373, AID1374, AID1375, AID1384 …. It counts as functional, cell-based. As to conditions: Homo sapiens.

For experiment [21], the target named is Heat shock protein HSP 90-alpha (Homo sapiens, UniProt P07900). The experiment can be described thus: Luminescence-based dose response biochemical high throughput screening assay for inhibitors of the Heat Shock Protein 90 (HSP90). [Related pubchem assays: 1831 (Summary AID.), 1846 (Confirmation screen.), 1789 (Primary screen.)].
For experiment [22], the system named is HEK293. The experiment can be described thus: TNF Induced NF-kB Luciferase in 293-NF-kB-Luc Stable Cells. [Related pubchem assays: 1266, 1299, 1269, 1373, 1292, 1290, 1302, 1371, 1283, 1270, 1295, 1271, 1375, 1294, 1374, 1281, 1293, 1291, 1289, 1280, 465, 1368, 1364, 1282, 1372, 1365, 1369, 1370, 1367, 1366 ]. It counts as functional, cell-based. As to conditions: Homo sapiens.

A short description of experiment [23]: cytotoxicity in HEK-293T cells, dose response, cytotoxicity control for BCR NF-kB inhibitor project, luminescence, B-cell screen hits (AID 489021).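 Also: HEK-293T cells carrying an NF-kB luciferase reporter; cells exposed to compound for about 14 hours before viability readout.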 It is filed as functional, cell-based.
The nature of experiment [24]: inhibitors of HIV Env-driven cell fusion, dose response, cherry-pick (AID 652057). It is filed as functional, cell-based.
Experiment [25] in a line: ZM109 Env clade C HIV-1 fusion inhibitors, dose response, HeLa effector, CEM target cells, luciferase, cherry-pick (AID 652058). It is filed as functional, cell-based.
Experiment [26] has as its target Paired box protein Pax-8 (Homo sapiens, UniProt Q06710). The experiment can be described thus: inhibitors of PAX8-driven TPO luciferase reporter, dose response, RMG-I cells, cherry-pick (AID 687027).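 Also: luciferase reporter driven by Pax8 target thyroperoxidase promoter measured by SteadyGlo luminescence.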 It is filed as functional, cell-based.
The nature of experiment [27]: off-target signal loss in HeLa-CEM21 co-culture – HeLa F-luc CTL cells, cherry-picked, counter-screen for HIV-1 Env fusion inhibitor project, dose response (AID 652040).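 Also: potency for signal decrease marking cytotoxic or nonspecific inhibition.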 It is filed as functional, cell-based.
Experiment [28] can be described thus: inhibitors of clade B AD8 Env fusion, dose response, cell-based, cherry-pick (AID 652062).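 Also: luciferase signal from cell-cell fusion driven by HIV-1 clade B AD8 Env; potency is for inhibitors of fusion seen as a drop in luminescence.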 It counts as functional.
The target of experiment [29] is Intestinal-type alkaline phosphatase (Homo sapiens, UniProt P09923). The experiment can be described thus: Dose Response confirmation of uHTS hits from a small molecule inhibitors of human intestinal alkaline phosphatase via a luminescent assay. [Related pubchem assays (depositor defined):AID2544, AID2574]. It counts as functional.
Chain of Intestinal-type alkaline phosphatase (P09923 whole entry): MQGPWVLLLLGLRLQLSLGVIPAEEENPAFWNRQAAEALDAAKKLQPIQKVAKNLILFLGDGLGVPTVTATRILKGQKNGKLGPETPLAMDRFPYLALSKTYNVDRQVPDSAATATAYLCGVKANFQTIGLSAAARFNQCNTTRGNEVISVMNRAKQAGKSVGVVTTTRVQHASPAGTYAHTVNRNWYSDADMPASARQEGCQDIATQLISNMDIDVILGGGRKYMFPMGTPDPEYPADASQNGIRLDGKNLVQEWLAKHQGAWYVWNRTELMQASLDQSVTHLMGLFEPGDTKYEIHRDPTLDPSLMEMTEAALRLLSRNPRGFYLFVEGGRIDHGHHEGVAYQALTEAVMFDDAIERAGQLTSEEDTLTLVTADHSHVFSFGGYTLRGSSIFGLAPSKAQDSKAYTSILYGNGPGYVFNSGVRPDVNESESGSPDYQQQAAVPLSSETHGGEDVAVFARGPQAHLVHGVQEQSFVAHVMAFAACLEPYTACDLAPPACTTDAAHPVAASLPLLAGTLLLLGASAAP

T1 sequence (P08659 whole entry): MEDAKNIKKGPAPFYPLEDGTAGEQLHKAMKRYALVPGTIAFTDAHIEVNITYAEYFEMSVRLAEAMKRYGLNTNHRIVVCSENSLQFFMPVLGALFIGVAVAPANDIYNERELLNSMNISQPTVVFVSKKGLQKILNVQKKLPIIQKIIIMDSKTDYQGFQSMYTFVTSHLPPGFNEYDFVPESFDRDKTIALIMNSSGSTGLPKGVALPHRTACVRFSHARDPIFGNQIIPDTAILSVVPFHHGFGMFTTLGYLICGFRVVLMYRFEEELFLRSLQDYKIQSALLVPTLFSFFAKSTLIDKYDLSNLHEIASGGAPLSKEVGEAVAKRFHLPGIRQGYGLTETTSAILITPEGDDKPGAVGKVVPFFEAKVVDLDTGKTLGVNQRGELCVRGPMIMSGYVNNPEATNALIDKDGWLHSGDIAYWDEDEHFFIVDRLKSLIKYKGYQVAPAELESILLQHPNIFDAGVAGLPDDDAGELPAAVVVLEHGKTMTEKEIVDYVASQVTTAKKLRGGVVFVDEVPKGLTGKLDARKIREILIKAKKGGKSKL
Chain of ORF 73 (O40947 whole entry): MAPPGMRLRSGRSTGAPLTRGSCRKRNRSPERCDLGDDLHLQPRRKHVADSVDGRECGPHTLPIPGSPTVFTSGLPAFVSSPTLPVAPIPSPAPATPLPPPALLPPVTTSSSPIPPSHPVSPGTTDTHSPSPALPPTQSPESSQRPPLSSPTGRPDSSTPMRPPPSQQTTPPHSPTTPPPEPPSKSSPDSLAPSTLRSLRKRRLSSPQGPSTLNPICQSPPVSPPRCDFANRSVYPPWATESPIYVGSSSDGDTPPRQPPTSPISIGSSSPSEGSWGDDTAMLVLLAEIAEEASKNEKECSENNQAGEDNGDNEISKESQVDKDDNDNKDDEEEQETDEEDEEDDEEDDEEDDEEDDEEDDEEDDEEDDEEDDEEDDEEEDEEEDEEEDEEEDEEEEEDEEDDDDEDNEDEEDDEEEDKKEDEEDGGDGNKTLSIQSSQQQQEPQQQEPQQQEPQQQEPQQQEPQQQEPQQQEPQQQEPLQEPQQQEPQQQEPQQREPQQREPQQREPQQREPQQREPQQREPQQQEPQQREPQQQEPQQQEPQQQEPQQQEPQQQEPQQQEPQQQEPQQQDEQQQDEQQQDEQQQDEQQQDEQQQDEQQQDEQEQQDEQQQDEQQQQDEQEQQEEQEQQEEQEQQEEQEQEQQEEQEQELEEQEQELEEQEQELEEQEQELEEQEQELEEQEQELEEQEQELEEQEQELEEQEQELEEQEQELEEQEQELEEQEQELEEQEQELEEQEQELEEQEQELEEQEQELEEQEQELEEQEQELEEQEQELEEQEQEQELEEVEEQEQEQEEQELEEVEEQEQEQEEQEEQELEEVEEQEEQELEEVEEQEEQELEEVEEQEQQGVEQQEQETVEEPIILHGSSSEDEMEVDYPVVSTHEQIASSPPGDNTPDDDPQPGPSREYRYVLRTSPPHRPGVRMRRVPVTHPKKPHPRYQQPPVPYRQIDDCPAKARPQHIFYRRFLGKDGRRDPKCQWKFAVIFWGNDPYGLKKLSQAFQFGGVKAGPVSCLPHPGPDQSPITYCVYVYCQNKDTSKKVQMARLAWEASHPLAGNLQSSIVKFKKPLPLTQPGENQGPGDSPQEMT
Chain of FAD-linked sulfhydryl oxidase ALR (P55789 whole entry): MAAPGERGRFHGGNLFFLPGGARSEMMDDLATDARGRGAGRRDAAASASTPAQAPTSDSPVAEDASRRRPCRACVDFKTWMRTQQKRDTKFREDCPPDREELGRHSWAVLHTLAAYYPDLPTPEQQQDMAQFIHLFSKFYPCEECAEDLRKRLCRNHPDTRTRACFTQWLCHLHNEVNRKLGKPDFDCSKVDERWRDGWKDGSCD
Chain of Keap1/Nrf2 (Q16236 whole entry): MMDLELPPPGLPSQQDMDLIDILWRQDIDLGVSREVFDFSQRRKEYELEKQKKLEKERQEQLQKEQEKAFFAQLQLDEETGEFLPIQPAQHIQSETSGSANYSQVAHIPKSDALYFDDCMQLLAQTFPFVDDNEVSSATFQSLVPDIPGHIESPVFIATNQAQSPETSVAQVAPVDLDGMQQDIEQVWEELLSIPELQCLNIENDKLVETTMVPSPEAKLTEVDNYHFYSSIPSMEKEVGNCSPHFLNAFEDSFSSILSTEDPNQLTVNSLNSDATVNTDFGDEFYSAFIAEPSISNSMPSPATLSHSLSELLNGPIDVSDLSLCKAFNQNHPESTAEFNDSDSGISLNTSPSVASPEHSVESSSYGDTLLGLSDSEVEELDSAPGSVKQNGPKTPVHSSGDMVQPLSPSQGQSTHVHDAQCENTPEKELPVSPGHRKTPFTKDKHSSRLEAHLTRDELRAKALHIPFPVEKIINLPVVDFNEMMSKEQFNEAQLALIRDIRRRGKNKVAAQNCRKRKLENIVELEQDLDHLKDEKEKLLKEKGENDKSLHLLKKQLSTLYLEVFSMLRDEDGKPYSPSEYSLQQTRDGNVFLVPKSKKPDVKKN
Chain of Keap1/Nrf2 (Q14145 whole entry): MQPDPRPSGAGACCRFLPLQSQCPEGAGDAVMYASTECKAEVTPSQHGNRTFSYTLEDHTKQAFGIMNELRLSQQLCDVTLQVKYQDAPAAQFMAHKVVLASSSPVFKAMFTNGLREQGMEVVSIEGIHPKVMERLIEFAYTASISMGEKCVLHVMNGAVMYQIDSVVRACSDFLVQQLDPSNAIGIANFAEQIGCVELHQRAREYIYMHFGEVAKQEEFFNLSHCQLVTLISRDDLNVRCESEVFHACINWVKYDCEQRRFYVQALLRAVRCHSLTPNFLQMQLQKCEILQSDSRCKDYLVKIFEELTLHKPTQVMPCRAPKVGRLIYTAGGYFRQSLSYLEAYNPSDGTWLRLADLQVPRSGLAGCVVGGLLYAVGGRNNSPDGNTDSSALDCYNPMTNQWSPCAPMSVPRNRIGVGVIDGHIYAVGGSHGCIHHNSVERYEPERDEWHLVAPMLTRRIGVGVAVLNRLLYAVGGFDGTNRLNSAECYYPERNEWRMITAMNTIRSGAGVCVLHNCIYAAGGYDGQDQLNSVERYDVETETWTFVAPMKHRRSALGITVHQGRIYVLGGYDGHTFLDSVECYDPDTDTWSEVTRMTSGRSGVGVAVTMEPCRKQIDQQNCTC
Chain of Paired box protein Pax-8 (Q06710 whole entry, the tested form may be a part): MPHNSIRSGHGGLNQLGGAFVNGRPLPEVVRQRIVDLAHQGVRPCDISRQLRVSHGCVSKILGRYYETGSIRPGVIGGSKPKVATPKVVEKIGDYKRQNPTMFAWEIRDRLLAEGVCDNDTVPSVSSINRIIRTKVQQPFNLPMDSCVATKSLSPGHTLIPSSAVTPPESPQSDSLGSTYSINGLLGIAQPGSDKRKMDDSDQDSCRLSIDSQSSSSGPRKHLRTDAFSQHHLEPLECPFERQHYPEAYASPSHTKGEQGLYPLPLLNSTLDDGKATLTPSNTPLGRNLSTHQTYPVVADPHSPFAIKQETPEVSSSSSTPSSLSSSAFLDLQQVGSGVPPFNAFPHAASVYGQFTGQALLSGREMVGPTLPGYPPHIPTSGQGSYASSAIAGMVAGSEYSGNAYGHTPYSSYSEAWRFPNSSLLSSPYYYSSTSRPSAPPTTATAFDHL

`Cc1ccc(-c2c(C#N)c(N)n(-c3ccc(C)cc3)c(=O)c2C#N)cc1`: the concentration for a half-maximal effect (EC50) in experiment [1] was > 112 µM (not active); in experiment [2], 2.3 µM (active); in experiment [3], < 3 µM (active). The AC50 in experiment [4] was 9.08 µM (active).
For the compound `CC(C)CCNC(=O)c1cc(-c2ccco2)nc2ccccc12`, the IC50 in experiment [5] is > 56.8 µM (inactive).
Take `CC(C)C1C(C#N)=C(N)Oc2[nH]nc(-c3cccs3)c21` (centres undefined): the IC50 in [6] is > 50 µM (inactive). In [7], the AC50 is 6.41 µM (active).
On to `COc1ccc(NC(=O)c2cccc(-c3ccc(O)cc3)c2)cn1`, for which the values for the EC50 in experiment [8], in experiment [9] and in experiment [10] were 16.9 µM (active), > 150 µM (not active) and > 150 µM (not active), respectively. Moreover, the AC50 in experiment [11] is 144 µM (active); in [12] it was 4.31 µM (active); in experiment [13], 45.4 µM (active); in experiment [14], 34.3 µM (active); in experiment [15], 43.8 µM (active). Further, the IC50 in [16] was 42.3 µM (active).
For the compound `O=C(CN1C(=O)c2ccccc2S1(=O)=O)N1CCc2ccccc21`, the EC50 is 0.53 µM (active) in experiment [17]; > 8 µM (not active) in [18]; > 8 µM (not active) in [19]; > 8 µM (inactive) in [20]; > 8 µM (not active) in [22]. The IC50 in experiment [21] was 35.3 µM (not active); in experiment [23] it was > 80 µM (inactive). For the same compound, the AC50 was 2.89 µM (active) in experiment [24]; 8.62 µM (active) in [25]; 4.88 µM (active) in experiment [26]; 3.84 µM (active) in experiment [27]; 3.89 µM (active) in experiment [28].
As to `CCOc1cccc(OCCOCCOc2ccccc2C(C)=O)c1`, the IC50 in experiment [29] is > 100 µM (inactive).
